In the supplement of paper PMC8882468:

The compounds below were run on HCI-024 (organoid from a breast cancer xenograft) (assay: CTG-3D luminescence at 96 h relative to day-0 seeding control (ratio to day 0); higher = more growth / less cytotoxicity; PDxO 3D drug screen, 96 h, CTG-3D normalised to day-0 seeding control.). Conditions: 0.00025 µM; days in culture: 163.

Row | Compound | CTG-3D luminescence at 96 h
1 | NC(=O)Nc1cc(-c2cccc(F)c2)sc1C(=O)N[C@H]1CCCNC1 [AZD7762] | 1.96
2 | Nc1ccn([C@@H]2O[C@H](CO)[C@@H](O)C2(F)F)c(=O)n1 [gemcitabine] | 1.85
3 | CC1(C)CCC(c2ccc(Cl)cc2)=C(CN2CCN(c3ccc(C(=O)NS(=O)(=O)c4ccc(N[C@H](CCN5CCOCC5)CSc5ccccc5)c(S(=O)(=O)C(F)(F)F)c4)cc3)CC2)C1 [navitoclax] | 2.19
4 | CN(Cc1cnc2nc(N)nc(N)c2n1)c1ccc(C(=O)N[C@@H](CCC(=O)O)C(=O)O)cc1 [methotrexate] | 2.08
5 | C=CCn1c(=O)c2cnc(Nc3ccc(N4CCN(C)CC4)cc3)nc2n1-c1cccc(C(C)(C)O)n1 [adavosertib] | 2.21
6 | CC(C)(C(=O)NCC(F)(F)C(F)(F)F)C(=O)N[C@@H]1C(=O)Nc2ccccc2-c2ccccc21 | 2.11
7 | C[C@@H]1COCCN1c1cc(C2([S@](C)(=N)=O)CC2)nc(-c2cc[nH]c3nccc2-3)n1 [ceralasertib] | 1.91
8 | CCN1CCN(Cc2ccc(Nc3ncc(F)c(-c4cc(F)c5nc(C)n(C(C)C)c5c4)n3)nc2)CC1 [abemaciclib] | 2.01

Same assay, conditions: 0.005 µM; days in culture: 105

Row | Compound | CTG-3D luminescence at 96 h
9 | COc1cccc2c1C(=O)c1c(O)c3c(c(O)c1C2=O)C[C@@](O)(C(=O)CO)C[C@@H]3O[C@H]1C[C@H](N)[C@H](O)[C@H](C)O1 [doxorubicin] | 1.47
10 | O=C(O)C1(C(=O)O)CCC1.[NH2-].[NH2-].[Pt+2] [carboplatin] | 1.37
11 | NC(=O)Nc1cc(-c2cccc(F)c2)sc1C(=O)N[C@H]1CCCNC1 [AZD7762] | 1.42
12 | Nc1ccn([C@@H]2O[C@H](CO)[C@@H](O)C2(F)F)c(=O)n1 [gemcitabine] | 1.43
13 | CC1(C)CCC(c2ccc(Cl)cc2)=C(CN2CCN(c3ccc(C(=O)NS(=O)(=O)c4ccc(N[C@H](CCN5CCOCC5)CSc5ccccc5)c(S(=O)(=O)C(F)(F)F)c4)cc3)CC2)C1 [navitoclax] | 1.24
14 | CN(Cc1cnc2nc(N)nc(N)c2n1)c1ccc(C(=O)N[C@@H](CCC(=O)O)C(=O)O)cc1 [methotrexate] | 1.24
15 | C=CCn1c(=O)c2cnc(Nc3ccc(N4CCN(C)CC4)cc3)nc2n1-c1cccc(C(C)(C)O)n1 [adavosertib] | 1.14
16 | CC(C)(C(=O)NCC(F)(F)C(F)(F)F)C(=O)N[C@@H]1C(=O)Nc2ccccc2-c2ccccc21 | 0.962
17 | C[C@@H]1COCCN1c1cc(C2([S@](C)(=N)=O)CC2)nc(-c2cc[nH]c3nccc2-3)n1 [ceralasertib] | 1.35
18 | CCN1CCN(Cc2ccc(Nc3ncc(F)c(-c4cc(F)c5nc(C)n(C(C)C)c5c4)n3)nc2)CC1 [abemaciclib] | 1.28

Same assay, conditions: 0.005 µM; days in culture: 122

Row | Compound | CTG-3D luminescence at 96 h
19 | COc1cccc2c1C(=O)c1c(O)c3c(c(O)c1C2=O)C[C@@](O)(C(=O)CO)C[C@@H]3O[C@H]1C[C@H](N)[C@H](O)[C@H](C)O1 [doxorubicin] | 1.72
20 | O=C(O)C1(C(=O)O)CCC1.[NH2-].[NH2-].[Pt+2] [carboplatin] | 1.97
21 | NC(=O)Nc1cc(-c2cccc(F)c2)sc1C(=O)N[C@H]1CCCNC1 [AZD7762] | 1.93
22 | Nc1ccn([C@@H]2O[C@H](CO)[C@@H](O)C2(F)F)c(=O)n1 [gemcitabine] | 1.93
23 | CC1(C)CCC(c2ccc(Cl)cc2)=C(CN2CCN(c3ccc(C(=O)NS(=O)(=O)c4ccc(N[C@H](CCN5CCOCC5)CSc5ccccc5)c(S(=O)(=O)C(F)(F)F)c4)cc3)CC2)C1 [navitoclax] | 1.85
24 | CN(Cc1cnc2nc(N)nc(N)c2n1)c1ccc(C(=O)N[C@@H](CCC(=O)O)C(=O)O)cc1 [methotrexate] | 2.07
25 | C=CCn1c(=O)c2cnc(Nc3ccc(N4CCN(C)CC4)cc3)nc2n1-c1cccc(C(C)(C)O)n1 [adavosertib] | 1.99
26 | CC(C)(C(=O)NCC(F)(F)C(F)(F)F)C(=O)N[C@@H]1C(=O)Nc2ccccc2-c2ccccc21 | 1.8
27 | C[C@@H]1COCCN1c1cc(C2([S@](C)(=N)=O)CC2)nc(-c2cc[nH]c3nccc2-3)n1 [ceralasertib] | 1.89
28 | CCN1CCN(Cc2ccc(Nc3ncc(F)c(-c4cc(F)c5nc(C)n(C(C)C)c5c4)n3)nc2)CC1 [abemaciclib] | 1.7

Same assay, conditions: 0.005 µM; days in culture: 163

Row | Compound | CTG-3D luminescence at 96 h
29 | COc1cccc2c1C(=O)c1c(O)c3c(c(O)c1C2=O)C[C@@](O)(C(=O)CO)C[C@@H]3O[C@H]1C[C@H](N)[C@H](O)[C@H](C)O1 [doxorubicin] | 1.96
30 | O=C(O)C1(C(=O)O)CCC1.[NH2-].[NH2-].[Pt+2] [carboplatin] | 2.06
31 | NC(=O)Nc1cc(-c2cccc(F)c2)sc1C(=O)N[C@H]1CCCNC1 [AZD7762] | 2.02
32 | Nc1ccn([C@@H]2O[C@H](CO)[C@@H](O)C2(F)F)c(=O)n1 [gemcitabine] | 1.78
33 | CC1(C)CCC(c2ccc(Cl)cc2)=C(CN2CCN(c3ccc(C(=O)NS(=O)(=O)c4ccc(N[C@H](CCN5CCOCC5)CSc5ccccc5)c(S(=O)(=O)C(F)(F)F)c4)cc3)CC2)C1 [navitoclax] | 1.74
34 | CN(Cc1cnc2nc(N)nc(N)c2n1)c1ccc(C(=O)N[C@@H](CCC(=O)O)C(=O)O)cc1 [methotrexate] | 1.83
35 | C=CCn1c(=O)c2cnc(Nc3ccc(N4CCN(C)CC4)cc3)nc2n1-c1cccc(C(C)(C)O)n1 [adavosertib] | 1.86
36 | CC(C)(C(=O)NCC(F)(F)C(F)(F)F)C(=O)N[C@@H]1C(=O)Nc2ccccc2-c2ccccc21 | 1.38
37 | C[C@@H]1COCCN1c1cc(C2([S@](C)(=N)=O)CC2)nc(-c2cc[nH]c3nccc2-3)n1 [ceralasertib] | 1.68
38 | CCN1CCN(Cc2ccc(Nc3ncc(F)c(-c4cc(F)c5nc(C)n(C(C)C)c5c4)n3)nc2)CC1 [abemaciclib] | 1.71
